One molecule from patent US3984440A, “Polyene compounds” (Hoffmann-La Roche Inc., priority 1973, dated 1976) can be followed below.

Series [1] in a line: acute toxicity after intraperitoneal administration in rape oil. As to conditions: mouse, in vivo, ip.
Series [2] concerns papillomas induced with dimethyl-benzanthracene and croton oil. The experiment in a line: papilloma test: regression of tumors induced with dimethyl-benzanthracene and croton oil. As to conditions: mice, intraperitoneal, 400mg/kg/week, within two weeks. In kind it is in vivo. How it is done: The polyene compounds of formula I are useful in the topical and systemic prophylaxis and treatment of benignant and malignant neoplasias and premalignant lesions. The tumor-inhibiting activity of the polyene compounds of the invention is significant. […] The diameter of such papillomas in mice decreased by 55% within two weeks upon intraperitoneal administration of 400mg/kg/week of 9-(2,2,5,7,8-pentamethyl-chroman-6-yl)-3,7-dimethyl-nona-2,4,6,8-tetraen-1-oic acid.

The LD50 is the dose at which mortality reaches 50%. A lower LD50 goes with a more toxic substance. Consider `CC(/C=C/c1c(C)c(C)c2c(c1C)CCC(C)(C)O2)=C\C=C\C(C)=C\C(=O)O` [9-(2,2,5,7,8-pentamethyl-chroman-6-yl)-3,7-dimethyl-nona-2,4,6,8-tetraen-1-oic acid], for which, in series [1], the LD50 is 950 mg/kg, the median lethal dose (LD50) at 24 h is above 4000 mg/kg, the LD50 at 240 h is 950 mg/kg and the LD50 at 480 h was 950 mg/kg. For the same molecule, the “decrease of diameter of papillomas” value in series [2] was 55%.
